Experimental data published in US9382254B2, “Compounds and pharmaceutical compositions thereof for the treatment of cystic fibrosis” (Galapagos NV, priority 2013, dated 2016).

Legend:
Assay type in all cases: cell-based
[1] = biological target: T1, CFTR ΔF508 mutant (Homo sapiens, UniProt P13569, DEL508-508); test: YFP-halide influx assay for the CFTR-ΔF508 mutation, PBS buffer (96 well); details: CFBE41o- cells, forskolin 10.67 μM
T1 construct: expressed in transfected cells; host or cells: CFBE41o- (adenoviral transduction)
T1 sequence (P13569 with tags, fused parts or gaps DEL508-508): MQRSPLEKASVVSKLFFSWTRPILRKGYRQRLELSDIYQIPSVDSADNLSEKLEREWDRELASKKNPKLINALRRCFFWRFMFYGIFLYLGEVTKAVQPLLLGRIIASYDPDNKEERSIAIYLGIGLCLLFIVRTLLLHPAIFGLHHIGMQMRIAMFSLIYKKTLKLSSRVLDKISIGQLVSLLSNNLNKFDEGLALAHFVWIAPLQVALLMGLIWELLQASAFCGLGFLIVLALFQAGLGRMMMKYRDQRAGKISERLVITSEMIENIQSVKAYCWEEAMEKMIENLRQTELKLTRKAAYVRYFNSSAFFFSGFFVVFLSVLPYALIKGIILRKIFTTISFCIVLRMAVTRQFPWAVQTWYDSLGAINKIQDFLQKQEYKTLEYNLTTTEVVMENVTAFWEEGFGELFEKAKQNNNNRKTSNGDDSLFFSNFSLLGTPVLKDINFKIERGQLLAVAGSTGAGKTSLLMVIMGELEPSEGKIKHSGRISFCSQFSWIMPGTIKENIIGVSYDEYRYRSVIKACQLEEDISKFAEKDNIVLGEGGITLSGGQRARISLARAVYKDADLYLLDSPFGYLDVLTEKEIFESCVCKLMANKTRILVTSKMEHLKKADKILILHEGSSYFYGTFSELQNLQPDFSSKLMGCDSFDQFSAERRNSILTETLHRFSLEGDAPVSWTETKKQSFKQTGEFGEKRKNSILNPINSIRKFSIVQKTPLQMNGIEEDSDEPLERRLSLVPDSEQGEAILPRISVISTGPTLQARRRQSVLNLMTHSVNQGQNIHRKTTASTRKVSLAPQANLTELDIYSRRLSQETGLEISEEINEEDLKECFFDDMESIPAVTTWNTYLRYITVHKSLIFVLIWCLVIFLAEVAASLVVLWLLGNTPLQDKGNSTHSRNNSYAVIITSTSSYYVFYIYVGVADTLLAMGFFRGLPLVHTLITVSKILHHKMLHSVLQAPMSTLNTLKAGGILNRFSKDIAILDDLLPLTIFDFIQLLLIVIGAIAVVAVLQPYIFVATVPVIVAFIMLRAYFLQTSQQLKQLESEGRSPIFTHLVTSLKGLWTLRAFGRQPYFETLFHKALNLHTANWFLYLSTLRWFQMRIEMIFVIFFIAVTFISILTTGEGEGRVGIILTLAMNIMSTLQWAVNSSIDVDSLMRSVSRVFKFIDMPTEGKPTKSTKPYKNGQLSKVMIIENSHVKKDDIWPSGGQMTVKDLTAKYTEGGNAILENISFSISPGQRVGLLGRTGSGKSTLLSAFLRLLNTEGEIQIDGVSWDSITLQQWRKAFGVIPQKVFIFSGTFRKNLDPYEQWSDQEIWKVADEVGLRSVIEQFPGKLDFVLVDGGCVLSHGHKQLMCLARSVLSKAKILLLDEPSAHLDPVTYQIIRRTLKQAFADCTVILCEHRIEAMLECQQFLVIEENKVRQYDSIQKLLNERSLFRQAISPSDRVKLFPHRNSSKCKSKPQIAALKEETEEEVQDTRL
Method in brief: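 CFBE41o- cells were adenovirally transduced with CFTR ΔF508 and YFP H148Q/I152L, then incubated 24 h at 27 °C or with a CFTR modulator at 37 °C. I⁻-induced fluorescence quenching was recorded over 7 s after injection; response expressed as 1−F/F0, with EC50 from concentration plots.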

[2] = biological target: T2, CFTR G551D mutant (Homo sapiens, UniProt P13569, G551D); test: YFP-halide influx assay for the CFTR-G551D mutation; details: HEK293 cells, forskolin 10.67 μM
T2 construct: expressed in transfected cells; host or cells: HEK293 (reverse transfection with plasmid)
T2 sequence (P13569 whole entry G551D): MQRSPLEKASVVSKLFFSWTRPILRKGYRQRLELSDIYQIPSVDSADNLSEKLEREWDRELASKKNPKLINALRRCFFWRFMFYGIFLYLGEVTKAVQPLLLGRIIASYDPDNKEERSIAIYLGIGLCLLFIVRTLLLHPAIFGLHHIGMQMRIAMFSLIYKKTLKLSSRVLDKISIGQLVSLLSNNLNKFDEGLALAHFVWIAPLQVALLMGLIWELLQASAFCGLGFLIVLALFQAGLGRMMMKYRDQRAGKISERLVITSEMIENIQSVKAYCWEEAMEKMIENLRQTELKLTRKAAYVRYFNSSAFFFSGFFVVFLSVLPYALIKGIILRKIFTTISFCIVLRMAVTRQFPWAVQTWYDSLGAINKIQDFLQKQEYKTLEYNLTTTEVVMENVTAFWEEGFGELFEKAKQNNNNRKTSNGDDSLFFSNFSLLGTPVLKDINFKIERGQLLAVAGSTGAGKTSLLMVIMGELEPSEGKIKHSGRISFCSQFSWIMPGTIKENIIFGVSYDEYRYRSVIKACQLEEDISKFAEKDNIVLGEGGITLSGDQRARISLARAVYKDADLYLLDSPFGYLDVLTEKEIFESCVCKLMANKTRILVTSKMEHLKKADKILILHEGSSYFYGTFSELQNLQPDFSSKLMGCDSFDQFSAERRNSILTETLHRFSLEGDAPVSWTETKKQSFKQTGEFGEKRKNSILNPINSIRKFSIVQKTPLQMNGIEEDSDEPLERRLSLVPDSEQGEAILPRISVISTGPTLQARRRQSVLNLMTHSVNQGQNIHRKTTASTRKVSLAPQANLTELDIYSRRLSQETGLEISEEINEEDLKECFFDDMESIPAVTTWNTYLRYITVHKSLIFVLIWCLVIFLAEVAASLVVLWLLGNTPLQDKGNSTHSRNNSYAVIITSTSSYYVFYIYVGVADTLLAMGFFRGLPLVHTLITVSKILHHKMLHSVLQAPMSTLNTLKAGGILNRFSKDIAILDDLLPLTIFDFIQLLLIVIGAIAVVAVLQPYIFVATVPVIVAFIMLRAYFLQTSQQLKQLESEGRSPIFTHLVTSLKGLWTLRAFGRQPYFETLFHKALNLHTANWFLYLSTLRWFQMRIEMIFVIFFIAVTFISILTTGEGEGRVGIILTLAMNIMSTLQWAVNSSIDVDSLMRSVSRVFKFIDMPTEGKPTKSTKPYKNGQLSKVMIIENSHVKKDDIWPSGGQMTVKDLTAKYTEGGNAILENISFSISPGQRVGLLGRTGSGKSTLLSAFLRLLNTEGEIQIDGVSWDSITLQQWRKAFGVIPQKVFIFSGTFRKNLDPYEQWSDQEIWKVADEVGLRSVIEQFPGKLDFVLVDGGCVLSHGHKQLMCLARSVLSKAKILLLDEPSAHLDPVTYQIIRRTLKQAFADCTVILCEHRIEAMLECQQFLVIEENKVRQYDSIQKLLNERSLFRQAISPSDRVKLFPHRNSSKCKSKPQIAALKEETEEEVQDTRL
Method in brief: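 Channel opening potentiation measured as 1−F/F0, where F is YFP fluorescence 7 s after iodide injection and F0 before; EC50 taken from concentration plot. Cells: HEK293 transiently expressing CFTR G551D plus halide-sensitive YFP (H148Q, I152L, F47L), 24 h at 37 °C, 5% CO2.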

[3] = biological target: T1, CFTR ΔF508 mutant; test: YFP-halide influx assay for the CFTR-ΔF508 mutation (384 well, FDSS/μCell); details: CFBE41o- cells, CFTR-ΔF508, 1×D-PBS, fluorescence after 36 seconds
Method in brief: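 Potentiator read-out as 1−F/F0, F taken 36 s after iodide addition, EC50 fitted against compound concentration. Cells: CFBE41o- expressing ΔF508 CFTR plus halide-sensitive YFP via adenovirus, rescued by 27 °C for 24 h or 24 h modulator at 37 °C.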

Compound | EC50 [1] [nM] | EC50 [2] [nM] | EC50 [3] [nM]
CC(C)(O)C(=O)Nc1sc(S(=O)(=O)c2ccccc2C(F)(F)F)cc1C(N)=O [Compound 289, 2-(2-hydroxy-2-methylpropanamido)-5-(2-(trifluoromethyl)phenylsulfonyl) thiophene-3-carboxamide] | 31.1 | 191 | 28.4
C[C@H](O)C(=O)Nc1sc(S(=O)(=O)c2ccc(F)cc2)cc1C(N)=O [Compound 291, (S)-5-(4-fluorophenylsulfonyl)-2-(2-hydroxypropanamido) thiophene-3-carboxamide] | 81.2 | 1510 | 17.3
CN(C)c1cccc(S(=O)(=O)c2cc(C(N)=O)c(NC(=O)C(C)(C)O)s2)c1 [Compound 292, 5-(3-(dimethylamino)phenylsulfonyl)-2-(2-hydroxy-2-methylpropanamido) thiophene-3-carboxamide] | 70 | 2280 | 182
CC(C)c1ccccc1S(=O)(=O)c1cc(C(N)=O)c(NC(=O)C(C)(C)O)s1 [Compound 293, 2-(2-hydroxy-2-methylpropanamido)-5-(2-isopropylphenylsulfonyl) thiophene-3-carboxamide] | 15.1 | 110 | 7.6
COc1ccc(F)cc1S(=O)(=O)c1cc(C(N)=O)c(NC(=O)C(C)(C)O)s1 [Compound 295, 5-(5-fluoro-2-methoxyphenylsulfonyl)-2-(2-hydroxy-2-methylpropanamido) thiophene-3-carboxamide] | 95.2 | 1010 | 35.6
CC(C)(O)C(=O)Nc1sc(S(=O)(=O)c2ccccc2CC(F)(F)F)cc1C(N)=O [Compound 302, 2-(2-hydroxy-2-methylpropanamido)-5-(2-(2,2,2-trifluoroethyl)phenylsulfonyl) thiophene-3-carboxamide] | 11.3 | 307 | 8.1
CC(C)(O)C(=O)Nc1sc(S(=O)(=O)c2cc(Cl)ccc2F)cc1C(N)=O [Compound 303, 5-(5-chloro-2-fluorophenylsulfonyl)-2-(2-hydroxy-2-methylpropanamido) thiophene-3-carboxamide] | 37.5 | 1670 | 8.5
CN(c1ccc(F)cc1)S(=O)(=O)c1cc(C(N)=O)c(NC(=O)C(C)(C)O)s1 [Compound 304, 5-(N-(4-fluorophenyl)-N-methylsulfamoyl)-2-(2-hydroxy-2-methylpropanamido) thiophene-3-carboxamide] | 78.5 | 3330 | 109
CN(Cc1ccc(F)cc1)S(=O)(=O)c1cc(C(N)=O)c(NC(=O)C(C)(C)O)s1 [Compound 305, 5-(N-(4-fluorobenzyl)-N-methylsulfamoyl)-2-(2-hydroxy-2-methylpropanamido) thiophene-3-carboxamide] | 31.5 | 803 | 23.9
CC(C)(O)C(=O)Nc1sc(S(=O)(=O)N2CCOc3ccccc32)cc1C(N)=O [Compound 307, 5-(2H-benzo[b][1,4]oxazin-4(3H)-ylsulfonyl)-2-(2-hydroxy-2-methylpropanamido) thiophene-3-carboxamide] | 32.8 | 793 | 28.5
CC(C)(O)C(=O)Nc1sc(S(=O)(=O)c2ccc3c(c2)OC(F)(F)O3)cc1C(N)=O [Compound 310, 5-(2,2-difluorobenzo[d][1,3]dioxol-5-ylsulfonyl)-2-(2-hydroxy-2-methylpropanamido) thiophene-3-carboxamide] | 42.6 | 1760 | 66.1
CC(O)C(=O)Nc1sc(S(=O)(=O)c2ccccc2OC(F)(F)F)cc1C(N)=O (stereo not drawn) [Compound 311, 2-(2-hydroxypropanamido)-5-(2-(trifluoromethoxy)phenylsulfonyl) thiophene-3-carboxamide] | 15.2 | 607 | 3.5
